What was measured:
Assay type in all cases: in vivo, C57BL/6N mice
Fas gene = experiment: Real-time PCR of lipid metabolism gene expression in liver: Fas; settings: liver mRNA, relative to Pair-fed group; EtOH+B group, 1 mg/kg oral 10 days (FIG. 11)
Experimental: (§1) 8-week-old C57BL/6N mice were purchased from DAEHAN BIOLINK to be used for efficacy evaluation and quarantined and acclimated in a vivarium of HONGCHEON INSTITUTE OF MEDICAL HERB for 7 days (relative temperature: 23±2° C., relative humidity: 50±5%, and a 12 h light-dark cycle) prior to the start of experimentation. Among them, 18 male mice with no abnormal symptoms were selected and used.
(§2) During a liquid diet adaptation period, a control group was restrictedly fed with a Lieber-DeCarli'82 control liquid diet (F1259SP, Bio-serv), and an alcohol-fed group was restrictedly fed with a Lieber-DeCarli'82 ethanol liquid diet (F1258SP, Bio-serv) using a Liquid diet feeding tube (9019, Bio-serv), and the diets were replaced with new ones at a preset time between 3 P.M. and 5 P.M. […]
(§3) Real-time quantitative PCR was performed using a 7500 Real-time Thermal Cycler (Applied Biosystems, USA) with SYBR Green (Applied Biosystems, USA) to measure gene expression. […]
(§4) PCR amplification steps as described below were repeated for up to 40 cycles. […] Values were recorded after extension at every cycle.
(§5) After completion of all cycles, melting curve analysis was carried out to verify specificity of the primers. The results were analyzed using the One step system software v2.1 provided by Applied Biosystems.

[1] = test system: alcoholic steatosis-induced mice; experiment: Apoptosis in liver tissue by TUNEL assay; settings: alcohol+compound group vs group fed with only alcohol (FIG. 15)
Experimental: DNA fragmentation characteristics of apoptosis were examined using a terminal deoxynucleotidyl transferase (TdT)-FragEL kit (Oncogene Research Products, San Diego, Calif.).
First, a tissue sample fixed in 4% paraformaldehyde was embedded in paraffin and sliced into 5 μm sections. Replicated sections were rehydrated and permeabilized with proteinase K (20 μg/mL) at 25° C. for 20 minutes. Subsequently, the sections were covered with 3% H2O2 for 5 minutes to inactivate endogenous peroxidase. After the sample was incubated in a TdT buffer solution (200 mM sodium-cacodylate, 30 mM Tris, 0.3 mg/mL BSA, 0.75 mM CoCl2, pH 6.6) for 5 minutes, slides were covered with TdT and biotinylated dUTP and incubated in a humidified chamber at 37° C. for 1.5 hours. Negative controls were incubated with biotinylated dUTP in a TdT buffer solution without enzyme. Reactions were terminated by adding a stop buffer (0.5 M EDTA, pH 8.0) thereto at room temperature for 5 minutes. After blocking with 4% BSA, the slides were incubated with a streptavidin-horseradish peroxidase conjugate for 30 minutes. Subsequently, the sections were incubated in DAB at room temperature for 12 minutes and counterstained with methyl green. Apoptotic cells were identified by stained properties and morphological criteria (cell contraction, chromatin condensation and/or margination, and apoptotic bodies).

Fabp gene = experiment: Real-time PCR of lipid metabolism gene expression in liver: Fabp; settings: liver mRNA, relative to Pair-fed group; EtOH+B group, 1 mg/kg oral 10 days (FIG. 11)
Experimental: as §1, §2, §3, §4, §5

IL-1β = experiment: mRNA level of IL-1β by RT-PCR; settings: alcohol+compound group vs alcohol-fed group (FIG. 14)
Description: Monocyte chemoattractant protein 1 (MCP-1), called chemokine ligand 2 (CCL2), is one of the key chemokines that regulate pathogeneses of several diseases caused by monocyte infiltration. Meanwhile, interleukin 1 beta (IL1β), also known as a leukocytic endogenous mediator and a lymphocyte activating factor, is a member of the interleukin 1 family of cytokines. The cytokines are produced by activated macrophages at a damaged region of tissue.
Specifically, mRNA levels of MCP-1 and IL-1β were analyzed by using RT-PCR as described above in Example 2-8.

[2] = test system: alcoholic steatosis-induced mice; experiment: Biochemical analysis of ALT and AST levels; settings: 1 mg/kg oral 10 days; EtOH+B vs EtOH-fed (FIG. 10)
Experimental: as §1
(§6) During a liquid diet adaptation period, a control group was restrictedly fed with a Lieber-DeCarli'82 control liquid diet (F1259SP, Bio-serv), and an alcohol-fed group was restrictedly fed with a Lieber-DeCarli'82 ethanol liquid diet (F1258SP, Bio-serv) using a Liquid diet feeding tube (9019, Bio-serv), and the diets were replaced with new ones at a preset time between 3 P.M. and 5 P.M.
(§7) After 5 days of the liquid diet adaptation period, the mice were orally administered with 1 mg/kg of quercetin-3-O-β-D-xylopyranoside (test substance) for 10 days and fed with a 5% alcohol liquid diet. At 11th day, between 7 A.M. and 9 A.M., a group not fed with alcohol (hereinafter referred to as Pair-fed group) was orally administered with a 45% maltose dextrin solution, and a group fed with a 5% liquid diet (hereinafter referred to as EtOH-fed) and a group administered with a test substance (hereinafter referred to as EtOH+B group) were orally fed with 31.5% ethanol. […]

[3] = test system: alcoholic steatosis-induced mice; experiment: Progression of hepatic fibrosis in reticular fibers by Gomori Reticulum staining; settings: 1 mg/kg oral 10 days; EtOH+B vs EtOH-fed (FIG. 9)
Experimental: as §1, §6, §7

With `O=c1c(O[C@@H]2OC[C@@H](O)[C@H](O)[C@H]2O)c(-c2ccc(O)c(O)c2)oc2cc(O)cc(O)c12` [quercetin-3-O-β-D-xylopyranoside] the “expression level of the Fas gene” value (Fas gene) was 1.1 times, the “degree of apoptosis in liver tissue” value [1] was “significantly reduced” and the “expression level of the Fabp gene” value (Fabp gene) was 0.7 times. The “mRNA level of IL-1β” value (IL-1β) was “significantly reduced”, the ALT level [2] was “decreased” and the AST level [2] was “decreased”. The “progression of hepatic fibrosis in reticular fibers” value [3] was “suppressed”.
